Data: patent publication USRE47689E1, “Compounds for treating spinal muscular atrophy” (PTC Therapeutics, Inc., priority 2011, dated 2019)

Tested on: full length and Δ7 SMN2 mRNAs
Test: SMN2 mRNA RT-qPCR splicing assay in animal tissues
Format: in vivo, mouse
Details: C/C-allele SMA mice, brain and muscle, 10 mg/kg oral gavage twice per day for 10 days
Description: The reverse transcription-quantitative PCR-based (RT-qPCR) assay is used to quantify the levels of the full length and Δ7 SMN2 mRNAs in tissues from mice treated with test compound.
Protocol. C/C-allele SMA mice are treated by oral gavage two times per day for 10 days with test compounds resuspended in 0.5% HPMC and 0.1% Tween-80. Tissue samples were collected and snap frozen for RNA purification.
Tissue samples (20-40 mg) are homogenized in QIAzol Lysis Reagent for 2 minutes at 20 Hz in the TissueLyser II using one stainless steel bead. After addition of chloroform, the homogenate is separated into aqueous and organic phases by centrifugation. RNA partitioned to the upper, aqueous phase is extracted and ethanol is added to provide appropriate binding conditions. The sample is then applied to the RNeasy spin column from the RNeasy Mini Kit, where total RNA binds to the membrane. The RNA is eluted in RNase-free water then stored at −20° C. and subsequently analyzed using the TaqMan RT-qPCR on the 7900HT Thermocycler. Total RNA is diluted ten fold and 2.5 μL of the diluted sample is added to the TaqMan RT-qPCR mixture.
SMN2 spliced products are identified using the following primers and probes in Table 7. Primer SMN FL Forward B (SEQ ID NO. 7) hybridizes to a nucleotide sequence in exons 7 and 8, primer SMN Δ7 Forward B (SEQ ID NO. 8) hybridizes to a nucleotide sequence in exons 6 and 8, primer SMN Reverse B (SEQ ID NO. 9) hybridizes to a nucleotide sequence in exon 8, probe SMN Probe B (SEQ ID NO. 10) hybridizes to a nucleotide sequence in exon 8. These primers and probe hybridize to nucleotide sequences common to human SMN1 and SMN2 mRNAs. Since the SMA patient cells used in Example 5 contain only the SMN2 gene, RT-qPCR can quantify only SMN2 full-length and Δ7 mRNAs.
The SMN forward and reverse primers are used at final concentrations of 0.4 μM. The SMN probe is used at a final concentration of 0.15 μM. The SMN-GAPDH Mix (10 μL total volume) is prepared by combining 5 μL of 2×RT-PCR buffer, 0.4 μL of 25×RT-PCR enzyme mix, 0.5 μL of 20×GAPDH primer-probe mix, 1.505 μL of water, 2.5 μL of RNA solution, 0.04 μL of 100 μM forward primer, 0.04 μL of 100 μM reverse primer, and 0.015 μL of 100 μM SMN probe. […]
The increase of SMN2 FL and decrease in SMN2 Δ7 mRNAs relative to those in tissues from animals treated with vehicle control are determined from real-time PCR data using a modified ΔΔCt method (as described in Livak and Schmittgen, Methods, 2001, 25:402-8). The amplification efficiency E is calculated from the slope of the amplification curve for SMN2 FL, SMN2 Δ7, and GAPDH individually. The abundances of SMN2 FL, SMN2 Δ7, and GAPDH are then calculated as (1+E)^−Ct, where Ct is the threshold value for each amplicon. […]

Row | Structure (SMILES) | SMN2 FL mRNA relative to vehicle | SMN2 Δ7 mRNA relative to vehicle
1 | CC(C)NCCc1ccc2cc(-c3nc4c(Cl)cccc4s3)c(=O)oc2c1 [Cpd 35, 3-(4-chloro-1,3-benzothiazol-2-yl)-7-[2-(propan-2-ylamino)ethyl]-2H-chromen-2-one] | substantially more SMN2 FL mRNA | less SMN2 Δ7 mRNA
2 | CCN1CCN(c2ccc3cc(-c4cn5cc(C)nc(C)c5n4)c(=O)oc3c2)C[C@@H]1C [Cpd 626, 3-(6,8-dimethylimidazo[1,2-a]pyrazin-2-yl)-7-[(3S)-4-ethyl-3-methylpiperazin-1-yl]-2H-chromen-2-one] | substantially more SMN2 FL mRNA | less SMN2 Δ7 mRNA
